Reference: US4851209A, “Diagnostic procedures using radio labeled sucralfate and derivatives or precursors thereof” (The Regents of the University of California, priority 1985, dated 1989)

Key:
[1] = tested on: duodenal and gastric ulcers, gastric erosions, mucosa; details: cited from earlier work
duodenal ulcers = details: several clinical trials; cited from earlier work
pepsin = details: cited from earlier work
[2] = stability of tagged material in solution; assay type: physicochemical; details: one gram per 10 cc of normal saline
Source text: The tagged material was stable in a solution comprising one gram per 10 cc of normal saline. The solution was given orally as a 10 cc dose. […] A good analogy would be the stars at night vs. the stars during the day. The stars are there in both instances. However, the sky is so bright during the day that star-light is simply lost in the background. […] The potassium salt used for imaging ulcers in Example III can be replaced by other cations compatible in the human body including alkali metal and alkaline earth metal cations such as sodium and calcium.

Substance	binding to ulcerated areas in the upper G. I. tract ([1]; FDA approved drug)	duration of action ([1]; animal data)	binding to uninjured mucosa ([1]; compared with defective mucosa)	binding to duodenal and gastric ulcers and to gastric erosions ([1]; erosions produced by ethanol and anti-inflammatory drugs)	safety and efficacy in healing duodenal ulcers (duodenal ulcers)	inhibition of the action of pepsin (pepsin)	stability in solution [2]
Sucralfate	bind selectively to ulcerated areas	sustained	to a much lesser extent	binds to duodenal and gastric ulcers and to gastric erosions	shown the safety and efficacy	inhibits the action of pepsin	
potassium sucrose sulfate [Tc-99m labeled potassium sucrose sulfate]							stable
